From ChEMBL document CHEMBL1130550, “Sch 207278: a novel farnesyl protein transferase inhibitor from an unidentified fungus” (Bioorg Med Chem Lett, 1997)

Key:
[1] = target: Protein farnesyltransferase (Homo sapiens, UniProt P49354+P49356); experiment: Inhibition of Farnesyltransferase; type: protein-complex assay
[2] = Inhibition of Geranylgeranyl transferase type I; design: species or system Homo sapiens

| SMILES | IC50 [1] [µM] | IC50 [2] [µM] |
| --- | --- | --- |
| O=Cc1cc(O)c(C=O)c(C(=O)c2cccc(O)c2O)c1 | 3.5 | 70 |
| CC(=O)Oc1cc(C=O)cc(C(=O)c2cccc(OC(C)=O)c2OC(C)=O)c1C=O | 2.4 | 85 |
